Data: patent US10780101B2, “Amide derivatives of squalamine for the treatment of infections” (VIRBAC, priority 2016, dated 2020)
Values after ≈ are worked out from the molar mass of the structure shown.

Key:
[1] = system: S. intermedius Animal (1051997); test: MIC determination, S. intermedius animal (1051997); type: cell-based; details: Staphylococcus intermedius; Gram-positive; Mueller-Hinton medium, 24 h at 37° C.
Procedure: (§1) A negative control (2 mL of sterile culture medium)
(§2) A positive control (1940 μL of culture medium+40 μL of DMSO+20 μL of the bacterial suspension) from a thawed biological strain (the biological strains are stored at −80° C. in glycerol).
(§3) The tubes were incubated at 37° C. for 24 hours at 100 rpm.
(§4) The microorganisms were handled under a type L2 laboratory fume cupboard and, before any handling, a UV cycle was programmed and only sterile material was used. […] The chemical compounds to be tested were prepared in a DMSO/methanol mixture (50/50) at a concentration of 5 mg/mL.
(§5) After 24 hours of incubation, a measurement of the optical density was taken using a spectrophotometer at 600 nm, collecting 100 μL of the bacterial suspension diluted in 900 μL of the sterile culture medium. This test required the use of a 96-well plate and the required volume of the microbial suspension to be seeded was calculated for an OD corresponding to a value equal to 0.01 in each well. In this plate, the first line corresponded to the negative control (195 μL of sterile culture medium in each well), the second line corresponded to the positive control (seeded culture medium supplemented with 2% of DMSO), and the third line was loaded twice with bacterial suspension; 8 μL of test product were placed in each well. Thereafter, a 0.5 cascade dilution was performed from this line.
(§6) The first column served as inhibition control. A sterile filter was then placed on the microplate, allowing the passage of gases but not of contaminants. The microplate was incubated at 37° C. under a humid atmosphere for 24 hours.
(§7) NB: The medium used is Mueller-Hinton (MH) medium for bacteria. All the tests were performed in duplicate.
(§8) After incubation, the filter was replaced with a transparent film, and an OD reading was then taken in an iEMS plate spectrophotometer at 620 nm. Calculation of the minimum inhibitory concentration (MIC) was performed.

[2] = system: S. aureus Human ATCC 25923; test: MIC determination, S. aureus human ATCC 25923; type: cell-based; details: Staphylococcus aureus, ATCC25923; Gram-positive; Mueller-Hinton medium, 24 h at 37° C.
Procedure: as §1, §2, §3, §4, §5, §6, §7, §8

[3] = system: E. faecalis Human ATCC 29212; test: MIC determination, E. faecalis human ATCC 29212; type: cell-based; details: Enterococcus faecalis, ATCC29212; Gram-positive; Mueller-Hinton medium, 24 h at 37° C.
Procedure: as §1, §2, §3, §4, §5, §6, §7, §8

E. coli Human ATCC 28922 = test: MIC determination, E. coli human ATCC 28922; type: cell-based; details: Escherichia coli, ATCC28922; Gram-negative; Mueller-Hinton medium, 24 h at 37° C.
Procedure: as §1, §2, §3, §4, §5, §6, §7, §8

[4] = system: P. aeruginosa Animal (1051575); test: MIC determination, P. aeruginosa animal (1051575); type: cell-based; details: Pseudomonas aeruginosa; Gram-negative; Mueller-Hinton medium, 24 h at 37° C.
Procedure: as §1, §2, §3, §4, §5, §6, §7, §8

P. aeruginosa (1051575) = test: Potentiation of doxycycline activity (combination MIC); type: cell-based, Pseudomonas aeruginosa; details: for MIC - P. aeruginosa (1051575): content of compound of formula (I) to restore the doxycycline activity (at 2 μg/mL): in presence of doxycycline 2 μg/mL, 24 hours at 37° C.
S. aureus Animal (340) = test: MIC determination, S. aureus animal (340); type: cell-based; details: Staphylococcus aureus; Gram-positive; Mueller-Hinton medium, 24 h at 37° C.
Procedure: as §1, §2, §3, §4, §5, §6, §7, §8

CHO-K1 cells = test: WST1 cytotoxicity test on CHO-K1 cells; type: cell-based, Chinese hamster; details: Cricetulus griseus, CHO-K1, 24 h, read-out: IC50 (μg/mL) CHO
Procedure: Test WST1 was used to measure the cytotoxic activity of the products. This is a colorimetric test which makes it possible to measure the viability and the degree of cell proliferation. It is based on cleavage of the colorless tetrazolium salts WST-1 (4-[3-(4-iodophenyl)-2-(4-nitrophenyl)-2H-5-tetrazolio]-1,3-benzene disulfonate) with mitochondrial dehydrogenases to the yellow-colored formazan derivative, which may be quantified by spectrophotometry at 420-480 nm.
The WST1 test was performed on Chinese hamster ovary cells. The CHO-K1 cells (ATCC, USA) are kept in culture in McCoy's 5A medium supplemented with 10% fetal calf serum, 2 mM of L-glutamine and a mixture of penicillin-streptomycin (100 U/ml: 10 μg/ml). The culture is incubated at 37° C. under an atmosphere enriched in CO2 (5%), and subcultured every two days.
The cells are transferred into 96-well plates (25000 cells/mL) in whole McCoy's 5A medium, and maintained for 24 hours at 37° C. under a humid atmosphere enriched in CO2 (5%). Increasing concentrations of test products are added to the wells in double tests and 8 growth controls containing the cells in the medium alone are included in each series of tests. After 24 hours at 37° C. (5% CO2), the culture medium is removed, the cells are rinsed in phosphate buffer (PBS) and 50 μL of PBS containing 10% of reagent WST1 are added to each well. After 20 minutes of incubation at 37° C., the results are read by spectrophotometry at 450 nm.
The results are expressed in dose-response relationships, modeled by nonlinear regression analysis using the TableCurve software. The 50% inhibitory concentration (IC50) represents the concentration of product that is capable of reducing the cell viability by 50%.

[5] = system: P. aeruginosa Human ATCC 27853; test: MIC determination, P. aeruginosa human ATCC 27853; type: cell-based; details: Pseudomonas aeruginosa, ATCC27853; Gram-negative; Mueller-Hinton medium, 24 h at 37° C.
Procedure: as §1, §2, §3, §4, §5, §6, §7, §8

E. coli Animal (1956) = test: MIC determination, E. coli animal (1956); type: cell-based; details: Escherichia coli; Gram-negative; Mueller-Hinton medium, 24 h at 37° C.
Procedure: as §1, §2, §3, §4, §5, §6, §7, §8

For `CC(C)NC(=O)CC[C@@H](C)[C@H]1CCC2C3CCC4C[C@@H](NCCCN5CCN(CCCN)CC5)CC[C@]4(C)C3C[C@H](O)[C@@]21C` (stereo partly drawn) [(3), 3β-(1,4-bis(3-aminopropyl)piperazine)-N-isopropyldeoxycholamide], the MIC [1] was 4 µg/mL (≈ 6.49 µM), the MIC [2] was 15 µg/mL (≈ 24.4 µM) and the MIC [3] was 124 µg/mL (≈ 201 µM). For the same compound, the MIC (E. coli Human ATCC 28922) was 124 µg/mL (≈ 201 µM), the MIC [4] was 62 µg/mL (≈ 101 µM) and the “MIC - P. aeruginosa (1051575): content of compound of formula (I) to restore the doxycycline activity (at 2 μg/mL)” value (“MIC - P. aeruginosa (1051575): content” below) (P. aeruginosa (1051575)) was 2 µg/mL. The MIC (S. aureus Animal (340)) was 15 µg/mL (≈ 24.4 µM), the IC50 (CHO-K1 cells) was 120 µg/mL (≈ 195 µM) and the MIC [5] was 124 µg/mL (≈ 201 µM). It also gave an MIC (E. coli Animal (1956)) of over 124 µg/mL.
With `CC(C)NC(=O)CC[C@@H](C)[C@H]1CCC2C3C(C[C@H](O)[C@@]21C)[C@@]1(C)CC[C@H](NCCCN2CCN(CCCN)CC2)CC1C[C@H]3O` (stereo partly shown) [(6)] the MIC [1] was 16 µg/mL (≈ 25.3 µM), the MIC [2] was 16 µg/mL (≈ 25.3 µM) and the MIC [3] was 32 µg/mL (≈ 50.6 µM). For the same compound, the MIC (E. coli Human ATCC 28922) was 32 µg/mL (≈ 50.6 µM), the MIC [4] was 64 µg/mL (≈ 101 µM) and the “MIC - P. aeruginosa (1051575): content” value (P. aeruginosa (1051575)) was 8 µg/mL. It also gave an MIC (S. aureus Animal (340)) of 32 µg/mL (≈ 50.6 µM), an IC50 (CHO-K1 cells) of 100 µg/mL (≈ 158 µM) and an MIC [5] of 218 µg/mL (≈ 345 µM). For the same compound, the MIC (E. coli Animal (1956)) was 64 µg/mL (≈ 101 µM).
`CC(C)NC(=O)CC[C@@H](C)[C@H]1CCC2C3C(CC[C@@]21C)[C@@]1(C)CC[C@H](NCCCN2CCN(CCCN)CC2)CC1C[C@H]3O` (stereo partly drawn) [(9), 3β-(1,4-bis(3-aminopropyl)piperazine)-N-isopropylchenodeoxycholamide] gave an MIC [1] of 8 µg/mL (≈ 13 µM), an MIC [2] of 16 µg/mL (≈ 26 µM) and an MIC [3] of 62 µg/mL (≈ 101 µM). The MIC (E. coli Human ATCC 28922) was 15 µg/mL (≈ 24.4 µM), the MIC [4] was 62 µg/mL (≈ 101 µM) and the “synergism when administered with doxycycline” value (P. aeruginosa (1051575); doxycycline at 2 μg/mL) was “noteworthy synergism”. The “MIC - P. aeruginosa (1051575): content” value (P. aeruginosa (1051575)) was 2 µg/mL, the MIC (S. aureus Animal (340)) was 8 µg/mL (≈ 13 µM) and the IC50 (CHO-K1 cells) was 90 µg/mL (≈ 146 µM). It also gave an MIC [5] of 124 µg/mL (≈ 201 µM) and an MIC (E. coli Animal (1956)) of 15 µg/mL (≈ 24.4 µM).
In the case of `CNC(=O)CC[C@@H](C)[C@H]1CCC2C3C(CC[C@@]21C)[C@@]1(C)CC[C@H](NCCCNCCCNCCCN)CC1C[C@H]3O` (stereo partly drawn) [(10), 3β-norspermino-N-methylchenodeoxycholamide], the MIC [1] is reported as 1 µg/mL (≈ 1.74 µM), the MIC [2] is reported as 7 µg/mL (≈ 12.2 µM) and the MIC [3] is reported as 14 µg/mL (≈ 24.3 µM). The MIC (E. coli Human ATCC 28922) was 14 µg/mL (≈ 24.3 µM), the MIC [4] was 5 µg/mL (≈ 8.68 µM) and the “MIC - P. aeruginosa (1051575): content” value (P. aeruginosa (1051575)) was 1 µg/mL. The MIC (S. aureus Animal (340)) was 1 µg/mL (≈ 1.74 µM), the IC50 (CHO-K1 cells) was 35 µg/mL (≈ 60.8 µM) and the MIC [5] was 28 µg/mL (≈ 48.6 µM). It also gave an MIC (E. coli Animal (1956)) of 7 µg/mL (≈ 12.2 µM).
Compound `CNC(=O)CC[C@@H](C)[C@H]1CCC2C3C(CC[C@@]21C)[C@@]1(C)CC[C@H](NCCCN2CCN(CCCN)CC2)CC1C[C@H]3O` (stereo partly drawn) [(12), 3β-(1,4-bis(3-aminopropyl)piperazine)-N-methylchenodeoxycholamide] has an MIC [1] of 2 µg/mL (≈ 3.4 µM), an MIC [2] of 8 µg/mL (≈ 13.6 µM) and an MIC [3] of 15 µg/mL (≈ 25.5 µM). For the same compound, the MIC (E. coli Human ATCC 28922) was 30 µg/mL (≈ 51 µM), the MIC [4] was 30 µg/mL (≈ 51 µM) and the “MIC - P. aeruginosa (1051575): content” value (P. aeruginosa (1051575)) was 8 µg/mL. The MIC (S. aureus Animal (340)) was 4 µg/mL (≈ 6.8 µM), the IC50 (CHO-K1 cells) was 50 µg/mL (≈ 85 µM) and the MIC [5] was 60 µg/mL (≈ 102 µM). The MIC (E. coli Animal (1956)) was 15 µg/mL (≈ 25.5 µM).
With `CCN(CC)C(=O)CC[C@@H](C)[C@H]1CCC2C3C(CC[C@@]21C)[C@@]1(C)CC[C@H](NCCCNCCCN)CC1C[C@H]3O` (stereo partly drawn) [(13), 3β-norspermidino-N,N-diethylchenodeoxycholamide] the MIC [1] was 2 µg/mL (≈ 3.57 µM), the MIC [2] was 2 µg/mL (≈ 3.57 µM) and the MIC [3] was 2 µg/mL (≈ 3.57 µM). For the same compound, the MIC (E. coli Human ATCC 28922) was 8 µg/mL (≈ 14.3 µM), the MIC [4] was 16 µg/mL (≈ 28.5 µM) and the “MIC - P. aeruginosa (1051575): content” value (P. aeruginosa (1051575)) was 2 µg/mL. The MIC (S. aureus Animal (340)) was 4 µg/mL (≈ 7.13 µM), the IC50 (CHO-K1 cells) was 22 µg/mL (≈ 39.2 µM) and the MIC [5] was 16 µg/mL (≈ 28.5 µM). It also gave an MIC (E. coli Animal (1956)) of 8 µg/mL (≈ 14.3 µM).
